This is an account of results in the supplement of paper PMC9938120.

In the test the test system is FMOC25_1 (patient-derived low-grade serous ovarian cancer cells). Put plainly: drug sensitivity score (DSS3, normalised partial AUC of % inhibition dose-response) (DSS (score)); higher = more sensitive (stronger inhibition of viability); extreme values may be limits of the assay. As to conditions: 72 h; library: FO4B; assay format: 2D, 384-well, CellTiter-Glo. The gist of the method: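 Patient-derived ovarian cancer cells (early passage, under 10) were dispensed onto 384-well flat clear-bottom plates pre-plated with compounds at five concentrations covering a 10,000-fold range. Plates were incubated 72 h at 37 °C, 5% CO2, and viability was read with CellTiter-Glo. Data were processed in Breeze. The drug sensitivity score (DSS3) is a partial area under the percent-inhibition dose-response curve, divided by the log of the upper asymptote; higher means more sensitive.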

`COc1ccc(-c2cc3c(C)nc(N)nc3n([C@H]3CC[C@H](OCCO)CC3)c2=O)cn1` showed a drug sensitivity score of 23.8.

`Cc1ccc2nc(CN(CCN(Cc3nc4ccc(C)cc4[nH]3)Cc3nc4ccc(C)cc4[nH]3)Cc3nc4ccc(C)cc4[nH]3)[nH]c2c1` gave a drug sensitivity score of 3.9.

Compound `COc1cc2c(cc1O)CC[C@@H]1[C@@H]2CC[C@]2(C)[C@@H](O)CC[C@@H]12` [2-methoxyestradiol] had a drug sensitivity score of 4.1.

`CCCCC/C=C/C=C1/C(=O)C=C[C@@H]1C/C=C\CCCC(=O)O` [15D-PGJ2]: the drug sensitivity score worked out at 0.

For the compound `COc1cc(O)c2c(c1)/C=C/C[C@H](O)[C@H](O)C(=O)/C=C\C[C@H](C)OC2=O` [(5Z)-7-Oxozeaenol], the drug sensitivity score was found to be 0.

With `Cc1ccccc1C(C(=O)NC1CCCCC1)N(C(=O)Cn1ccnc1C)c1cccc(F)c1` (stereo not given) [AGI-5198], the drug sensitivity score was 0.

`O=C(Nc1cccc(C(F)(F)F)c1)Nc1cc(S(=O)(=O)NC2CC2)ccc1-c1ccsc1` [AGI-6780] displayed a drug sensitivity score of 0.4.

The compound `COc1ccc2c(OCc3nnc4ccc(-c5ccccc5)nn34)ccnc2c1` [AMG-208] yielded a drug sensitivity score of 1.3.

As to `Cc1csc(-c2nnc(Nc3ccc(Oc4ncccc4-c4ccnc(N)n4)cc3)c3ccccc23)c1` [AMG-900], the drug sensitivity score is 0.8.

Consider `CNC(=O)c1ccc(N2C(=S)N(c3cnc(C#N)c(C(F)(F)F)c3)C(=O)C23CCC3)cc1F` [ARN 509], for which the drug sensitivity score was determined as 0.

As to `CC(C)Oc1cc(Nc2nc(N[C@@H](C)c3ccc(F)cn3)ncc2Cl)n[nH]1` [AZ-23], the drug sensitivity score came to 0.

The compound `CNC(=O)c1cccc(-c2ccc3c(N4CCOC[C@@H]4C)nc(N4CCOC[C@@H]4C)nc3n2)c1` [AZD2014] showed a drug sensitivity score of 20.5.

In the case of `Cc1cc(C(=O)NOCCO)c(Nc2ccc(I)cc2F)n(C)c1=O` [AZD-8330], the drug sensitivity score worked out at 22.2.

For `CN(C)c1nc(N(C)C)nc(N(C)C)n1` [Altretamine], the drug sensitivity score was 0.

The compound `CO[C@H]1/C=C\C=C(/C)C(=O)NC2=CC(=O)C(NCCN(C)C)=C(C[C@@H](C)C[C@H](OC)[C@H](O)[C@@H](C)/C=C(\C)[C@@H]1OC(N)=O)C2=O` [Alvespimycin] returned a drug sensitivity score of 4.1.

`CN(C)CCN1C(=O)c2cccc3cc(N)cc(c23)C1=O` [Amonafide] registered a drug sensitivity score of 6.8.

`Cc1c(CN2CCN(C(=O)[C@H](C)O)CC2)sc2c(N3CCOCC3)nc(-c3cnc(N)nc3)nc12` [Apitolisib] had a drug sensitivity score of 18.1.

Compound `Cn1c(CCCC(=O)O)nc2cc(N(CCCl)CCCl)ccc21` [Bendamustine] showed a drug sensitivity score of 0.

`CS(=O)(=O)OCCCCOS(C)(=O)=O` [Busulfan] had a drug sensitivity score of 0.

In turn, `C#Cc1cccc(Nc2ncnc3cc(OC)c(OCCCCCCC(=O)NO)cc23)c1` [CUDC-101] registered a drug sensitivity score of 17.

The compound `Cc1nc(N)sc1-c1ccnc(Nc2ccc(N3CCOCC3)cc2)n1` [CYC-116] yielded a drug sensitivity score of 6.4.

Compound `CC[C@@]1(O)C(=O)OCc2c1cc1n(c2=O)Cc2cc3ccccc3nc2-1` [Camptothecin] yielded a drug sensitivity score of 17.

The compound `O=NN(CCCl)C(=O)NCCCl` [Carmustine] yielded a drug sensitivity score of 0.4.

As to `O=C(O)CCCc1ccc(N(CCCl)CCCl)cc1` [Chlorambucil], the drug sensitivity score was 0.

Regarding `O=P1(N(CCCl)CCCl)NCCCO1` (stereo not given) [Cyclophosphamide], the drug sensitivity score was 0.

For `CN(C)/N=N/c1[nH]cnc1C(N)=O` [Dacarbazine], the drug sensitivity score came out at 0.

As for `CCN(CC)C(=S)SSC(=S)N(CC)CC` [Disulfiram], the drug sensitivity score came to 3.7.

In turn, `C[C@]12CC[C@@H]3c4ccc(OC(=O)N(CCCl)CCCl)cc4CC[C@H]3[C@@H]1CC[C@@H]2O` [Estramustine] displayed a drug sensitivity score of 0.

The compound `Cc1nc(C(=O)NCC(=O)O)c(O)c2ccc(Oc3ccccc3)cc12` [FG-4592] showed a drug sensitivity score of 0.

Take `O=S(=O)(c1cccc2cnccc12)N1CCCNCC1` [Fasudil]: the drug sensitivity score was found to be 0.
